This note sets out measurements from ChEMBL document CHEMBL4627355, “Chemical reactivity and uses of 1-phenyl-3-methyl-5-pyrazolone (PMP), also known as edaravone” (Bioorg Med Chem, 2020).

For orientation: IC50 means the concentration that gives 50% inhibition.

Test [1] can be described thus: Antioxidant activity assessed as copper-chelating scavenging activity. In kind it is functional.
Test [2] can be described thus: Inhibition of lipid peroxidation. In kind it is functional.

As to `CC1=NN(c2ccccc2)C(=O)C1` [EDARAVONE], the IC50 amounted to 9 µM in test [1] and 4.5 µM in test [2].
For `O=C1CC(c2ccccc2)=NN1c1ccccc1`, the IC50 in test [1] amounted to 3 µM; in test [2] it was 3.5 µM.
